Entries after “also recorded” stand apart in the source; their conditions may differ.

Assay [1] relates to endothelial cells. Nature of the assay: adhesion test to ED-B-coated plates after pre-incubation of the cells with synthetic ED-B peptides. The assay is classed as cell-based. The settings on record: cells pre-incubated with 250 μM peptide; A595. How it is done: Bowls of a 96-bowl plate (Nunc) are covered with protein for one hour at 37° C. With small proteins (<20 kDa) or peptides, it is recommended to allow the latter to dry on the plate (overnight without a cover under the sterile bank). The bowls are then saturated with 1% BSA for 1 hour at 37° C. Cells are dissolved in 1×trypsin, washed with 2% serum to inactivate the trypsin, and resuspended in medium. If antibodies or peptides are to be tested, the cells are pre-incubated in suspension with the latter for 30 minutes at 37° C. 10^4 cells per bowl (96-bowl plate) are incubated in a volume of 50-100 μl for 1 hour at 37° C. The supernatant is carefully poured off, the plate can be left inverted to drain on a paper towel for one minute and attached cells are stained with crystal violet/glutaric aldehyde for 15 minutes and attached. The bowls are washed three times with PBS, and the cells are then lysed by adding 2% SDS (15 minutes in the shaker). The absorption at 595 nm is measured. After washing three times with water, the cells, if desired, can be stained again.
The adherence was determined by the determination of the extinction at 595 nm (A595). The peptide designations that are applied in the figure are explained in FIG. 6. In this case, peptide sequence No. 043 corresponds to the sequence that is represented in SEQ ID NO: 1, peptide sequence No. 553 corresponds to SEQ ID NO: 2, peptide sequence No. 038 corresponds to SEQ ID NO: 3. A higher A595 value corresponds to a non-inhibited adherence, while a lower A595 value corresponds to an inhibition of the adherence by the corresponding peptide.
The method described for FIG. 4 was followed.

Assay [2] deals with HUVEC (Human Umbilical Vein Endothelial Cells)-spheroids. In words: splintering test (tube formation test) of endothelial cell spheroids in collagen. The assay is classed as cell-based. The settings on record: for induction of capillary-like structures (tube formation); penetration of endothelial cells in collagen gels: over basal bFGF-induced penetration. How it is done: For the splintering test (tube formation test), the following experimental method was used:
Medium: MCDB 131, glutamine, Pen/Strep, amphotericin (0.25 μg/ml), heparin (20 μg/ml), heat-inactivated FCS (10%)
Growth medium: Medium with 2 ng/ml of bFGF and 10 ng/ml of VEGF
Endothelial cells are dissolved with trypsin/EDTA and diluted with 5000 cells/ml in medium with 0.24% methyl cellulose. 200 μl (1000 cells) each are added to bowls of a Greiner plate and incubated overnight. Round cell clusters (spheroids) are harvested with a 1 ml pipette with beveled tips and centrifuged off. Spheroids are resuspended in 1.2% methyl cellulose/FCS and mixed with neutralized collagen gel. EDb and bFGF were co-polymerized.
This peptide thus has a stimulating effect on the penetration of endothelial cells in collagen gels. This peptide therefore corresponds to the binding region of EDb and stimulates, analogously to EDb itself, the penetration of endothelial cells in the collagen.
The method described for FIG. 3 was followed.

Another assay relates to stromal cells (SC). In words: proliferation assay (MTS) of stromal cells. The assay is classed as cell-based, human. The settings on record: SC/gelatin; bFGF+ED-B; 3 days. How it is done:
(§1) 1000 cells per bowl were incubated in 96-bowl plates. Soluble ED-B (10 μg/l) was added to the medium during the proliferation assay. After three days, the cell count was determined with the MTS assay. The proliferation of cells was induced by a basic […] growth factor (bFGF). […] In the case of human stromal cells on gelatin (SC/gelatin), even in the absence of bFGF proliferation occurred that considerably exceeded that of human endothelial cells.
(§2) For the proliferation assay, the following experimental method was followed:
(§3) Material: 96-bowl plate (flat-bottomed), Nunc
(§4) Medium: MCDB 131, Pen/Strep, amphotericin (0.25 μg/ml), heparin (20 μg/ml), heat-inactivated FCS (5%)
Cells, 500-1000 per bowl (96-bowl plate) in 100 μl, are cultivated for 3 days in a medium with bFGF (1-3 ng/ml) or VEGF (30-50 ng/ml). The exact amount should be determined for each batch by titration: the minimum concentration that reaches the maximum proliferation stimulation is optimal. A synchronization of the cells before the experiment is not necessary, but can be done. After 3 days, the cell count is determined with the MTS kit (Promega) according to manufacturer's information. It is recommended to measure the absorption at several points to obtain a maximum absorption in the linear range (0.5; 1; 2; 4 hours). […]

The subject of assay [3] is endothelial cells. In words: adhesion test of endothelial cells to coated microtiter-bowl plates. The assay is classed as cell-based. The settings on record: plates coated with 0-40 μg/ml ED-B; 1 hour; crystal violet, A595. How it is done: As a negative control, bowls were used that were coated with 1 mg/ml of BSA (bovine serum albumin); the adhesion to BSA (<10%) was subtracted.
The adherence was quantified by staining with crystal violet, followed by a lysis with SDS. The quantification was carried out by measuring the extinction at 595 nm. A line drawn horizontally in the figure at A595 nm≈1.06 indicates the 100% adhesion to plasma-fibronectin.
For the adherence/adhesion test, the following experimental method was used:
Medium: MCDB 131, Pen/Strep, amphotericin (0.25 μg/ml), heparin (20 μg/ml), 0.1% BSA (Sigma, ethanol-precipitated)
0.1% crystal violet, 2% glutaric aldehyde in PBS, sterilized by filtration 2% SDS
Bowls of a 96-bowl plate (Nunc) are covered with protein for one hour at 37° C. With small proteins (<20 kDa) or peptides, it is recommended to allow the latter to dry on the plate (overnight without a cover under the sterile bank). The bowls are then saturated with 1% BSA for 1 hour at 37° C. Cells are dissolved in 1×trypsin, washed with 2% serum to inactivate the trypsin, and resuspended in medium. If antibodies or peptides are to be tested, the cells are pre-incubated in suspension with the latter for 30 minutes at 37° C. 10^4 cells per bowl (96-bowl plate) are incubated in a volume of 50-100 μl for 1 hour at 37° C. […] The absorption at 595 nm is measured. […]

The next assay deals with endothelial cells (EC). Nature of the assay: proliferation assay (MTS) of endothelial cells. It is filed as cell-based. The settings on record: soluble ED-B 10 μg/l, 3 days; for action on human endothelial cell proliferation: bFGF-induced. As to the method:
as §1, §2, §3, §4
Cells, 500-1000 per bowl (96-bowl plate) in 100 μl, are cultivated for 3 days in a medium with bFGF (1-3 ng/ml) or VEGF (30-50 ng/ml). The exact amount should be determined for each batch by titration: the minimum concentration that reaches the maximum proliferation stimulation is optimal. A synchronization of the cells before the experiment is not necessary, but can be done. After 3 days, the cell count is determined with the MTS kit (Promega) according to manufacturer's information. It is recommended to measure the absorption at several points to obtain a maximum absorption in the linear range (0.5; 1; 2; 4 hours).
Negative control, no mitogen (no proliferation) (−bFGF/VEGF) Positive control, with mitogen (maximum stimulation) (+bFGF/VEGF)

In assay [4] the test system is band with an apparent molecular weight of 120-130 kDa (receptor of the EDb-fibronectin domains). Nature of the assay: affinity chromatography of cell lysate from surface-labeled human skin stromal cells. It is filed as binding. The settings on record: Western Blot. As to the method: Method: The lysate is first put on the column three times.
EDTA-Elution: EDTA complexes the Ca and Mg ions. As a result, the endothelial-cell proteins are eluted, which require Ca and Mg for binding. 2×4 ml of EDTA-buffer is put on the column (or on both columns) and collected in two fractions (E1 and E2/BE1 and BE2) in Falcon tubes. Then, the tube contents are mixed, and […] is pipetted off into one (or two) Eppendorf vessel(s).
The fractions or pre-elution fractions that are thus obtained were separated with SDS-PAGE and subjected to a Western Blot under reducing conditions.
In the Western Blot shown in FIG. 11, traces 1-3 show the elution of an affinity column with Fn-7-8-9, while traces 4-6 show the elution of an affinity column of Fn-7-B-8-9. Traces 1 and 4 are pre-elution factors, while traces 2, 3 or 5, 6 show fractions 1 and 2 of the respective elution run.
(Immunoblotting shows a protein as a band on a membrane.)

Assay [5] concerns the target T1, biontinylated protein with an apparent molecular weight of 120-130 kDa (receptor of the EDb-fibronectin domains) (Homo sapiens, UniProt P05556).
T1 construct: proliferating endothelial cells that are biotinylated on the cell surface were lysed with a detergent; endogenous in cells; host or cells: proliferating human skin endothelial cells, surface-biotinylated, lysed in CHAPS
Nature of the assay: affinity chromatography of cell lysate from surface-labeled human skin endothelial cells. Conditions: proliferating endothelial cells; EDTA elution; SDS-PAGE, Western Blot. It is filed as binding. As to the method:
In this respect, proliferating endothelial cells that are biotinylated on the cell surface were lysed with a detergent and subjected to an affinity chromatography, in which short fragments of fibronectin were coupled to sepharose with or without the inserted EDb-fibronectin domains (with the EDb-fibronectin domains=Fn-7-B-8-9, without the EDb-fibronectin domains=Fn-7-8-9). […] The elution is carried out by means of EDTA. Several fractions, described below, were collected. The fractions were then subjected to SDS-PAGE and studied with Western Blot with streptavidin-peroxidase and chemiluminescence (ECL). Traces 1 and 5 show pre-elution fractions, while traces 2, 3, 4 or 6, 7, 8 show the eluted fractions 1, 2 and 3. Traces 1-4 show the chromatography with Fn-7-8-9, while traces 5-8 show the chromatography with Fn-7-B-8-9.
Method: The cell culture bottles are washed respectively 3 times with PBS w/Ca+Mg before and after the biotinylation. Before the last washing process, the biotin buffer (1 mg/15 ml of PBS) is prepared. Into each of the bottles, 5 ml of the buffer (for 225 cm^2) or 12.5 ml (500 cm^2 plates) is pipetted into the center of the bottom, so that the volume can disperse over the entire bottom of the bottle while swinging around. The first culture bottle is then treated with half of the lysis buffer volume. […]

T1 sequence (P05556 21-798): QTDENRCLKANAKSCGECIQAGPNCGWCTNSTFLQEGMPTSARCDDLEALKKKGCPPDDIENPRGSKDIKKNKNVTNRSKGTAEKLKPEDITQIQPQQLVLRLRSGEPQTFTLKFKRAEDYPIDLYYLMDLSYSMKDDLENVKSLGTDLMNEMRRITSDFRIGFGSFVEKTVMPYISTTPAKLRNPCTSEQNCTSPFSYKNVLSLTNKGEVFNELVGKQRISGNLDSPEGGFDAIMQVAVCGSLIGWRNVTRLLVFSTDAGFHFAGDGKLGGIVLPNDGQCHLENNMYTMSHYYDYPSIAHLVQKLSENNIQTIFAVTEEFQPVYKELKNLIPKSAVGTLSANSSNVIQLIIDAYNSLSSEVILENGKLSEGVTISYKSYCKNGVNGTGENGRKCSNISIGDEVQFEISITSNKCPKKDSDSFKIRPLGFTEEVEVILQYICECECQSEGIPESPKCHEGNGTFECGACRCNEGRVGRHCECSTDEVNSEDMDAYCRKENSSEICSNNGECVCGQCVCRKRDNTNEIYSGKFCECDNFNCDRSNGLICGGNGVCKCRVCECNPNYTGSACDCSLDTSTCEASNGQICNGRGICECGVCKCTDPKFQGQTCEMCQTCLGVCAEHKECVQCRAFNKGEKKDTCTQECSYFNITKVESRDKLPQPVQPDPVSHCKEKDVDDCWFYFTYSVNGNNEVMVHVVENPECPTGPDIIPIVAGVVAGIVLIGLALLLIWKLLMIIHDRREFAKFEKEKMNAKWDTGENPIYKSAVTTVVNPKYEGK
T1 sequence (P17301 30-1181 partner): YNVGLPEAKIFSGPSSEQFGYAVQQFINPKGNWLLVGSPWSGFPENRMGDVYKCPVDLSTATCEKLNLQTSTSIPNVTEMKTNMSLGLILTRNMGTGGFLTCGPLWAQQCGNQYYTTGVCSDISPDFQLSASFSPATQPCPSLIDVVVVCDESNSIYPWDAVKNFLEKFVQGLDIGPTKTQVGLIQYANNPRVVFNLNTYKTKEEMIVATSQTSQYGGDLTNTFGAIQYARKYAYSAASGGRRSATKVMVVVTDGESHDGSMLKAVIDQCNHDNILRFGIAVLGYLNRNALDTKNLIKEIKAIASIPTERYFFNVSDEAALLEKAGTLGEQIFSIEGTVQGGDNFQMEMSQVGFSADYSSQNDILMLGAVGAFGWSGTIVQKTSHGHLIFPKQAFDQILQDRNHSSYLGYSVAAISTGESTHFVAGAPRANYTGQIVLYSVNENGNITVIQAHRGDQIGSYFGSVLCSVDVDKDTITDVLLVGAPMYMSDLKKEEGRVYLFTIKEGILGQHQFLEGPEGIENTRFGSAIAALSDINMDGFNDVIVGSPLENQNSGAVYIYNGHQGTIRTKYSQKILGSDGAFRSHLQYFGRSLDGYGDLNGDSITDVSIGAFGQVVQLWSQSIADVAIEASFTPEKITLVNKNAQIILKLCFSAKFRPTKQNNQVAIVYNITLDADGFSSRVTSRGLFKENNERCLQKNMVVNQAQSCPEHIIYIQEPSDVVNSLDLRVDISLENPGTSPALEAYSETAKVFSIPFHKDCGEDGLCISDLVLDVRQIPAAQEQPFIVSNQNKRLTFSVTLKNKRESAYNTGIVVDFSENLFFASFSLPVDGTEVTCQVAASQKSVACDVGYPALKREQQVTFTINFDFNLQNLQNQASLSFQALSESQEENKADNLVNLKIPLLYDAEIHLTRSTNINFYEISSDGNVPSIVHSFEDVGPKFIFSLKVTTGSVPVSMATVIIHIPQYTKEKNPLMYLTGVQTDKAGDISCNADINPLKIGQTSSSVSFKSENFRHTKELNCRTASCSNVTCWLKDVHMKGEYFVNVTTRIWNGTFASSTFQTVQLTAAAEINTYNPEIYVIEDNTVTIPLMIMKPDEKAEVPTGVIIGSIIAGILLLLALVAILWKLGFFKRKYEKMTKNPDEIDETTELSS

For the substance “1: synthetic peptide, partial sequence of the EDb-fibronectin domains, SEQ ID NO: 1 (VDITDSSIGLRWTPL) [compound 1]”, the “inhibition of adherence of endothelial cells to ED-B-coated plates” value (“inhibition” below) in the assay with endothelial cells [1] was “inhibitory”.

“3: synthetic peptide, partial sequence of the EDb-fibronectin domains, SEQ ID NO: 3 (TGLEPGIDYDISVIT) [compound 3]”: the “inhibition” value with endothelial cells [1] is reported as “inhibitory”.

Take “ED-B: recombinant His-tagged EDb-fibronectin domain (type III repeat), expressed in E. coli”: the “splintering of endothelial cells from spheroids” value in assay [2] (embedded in collagen, 10 μg/ml bFGF, 6 μg/ml ED-B) is “further stimulated; also recorded: significant increase in splintering”. Moreover, the “induction of capillary-like structures (tube formation); penetration of endothelial cells in collagen gels” value in assay [2] is on record as “stimulates”. For the same substance, in the assay on stromal cells (SC), the “proliferation of human stromal cells” value is reported as “could not be increased”. For the same substance, the “adhesion of endothelial cells to coated surfaces” value with endothelial cells [3] is recorded as “cells adhere”. The “action on human endothelial cell proliferation” value with endothelial cells (EC) (EC/collagen) is given as “not as significant as in the flattening-out on gelatin”; in the assay on endothelial cells (EC) (EC/gelatin), “action of ED-B on human endothelial cell proliferation could be determined”. For the same substance, the “action on proliferation of cells (extinction at 490 nm)” value in the assay on endothelial cells (EC) (absence of bFGF, MTS assay) was “no action”.

Consider “Fn-7-B-8-9: recombinant fibronectin fragment with domains 7, EDb, 8 and 9”, for which, in assay [4], the “prominent 120-130 kDa band in eluate of affinity column” value is “cannot be determined”. Moreover, the “binding of 120-130 kDa surface protein to sepharose-coupled fragment” value in assay [5] is “binds specifically”.

As for “peptide No. 2: synthetic peptide derived from loop 5 of ED-B, SEQ ID NO: 2 (GYYTVTGLEPGIDYD)”, the “induction of capillary-like structures (tube formation); penetration of endothelial cells in collagen gels” value in assay [2] is given as “maximum effect”. Moreover, in the assay on endothelial cells [1], the “inhibition” value is “inhibitory”.
